Data on 19 molecules can be found in patent publication US20120214760A1, “TREATMENT OF URINARY TRACT INFECTIONS WITH ANTIBACTERIAL AMINOGLYCOSIDE COMPOUNDS” (Achaogen, Inc., priority 2009, published 2012).

Test [1] relates to P. aeruginosa ATCC 27853 (APAE001). The experiment in a line: MIC, CLSI broth microdilution. In kind it is cell-based. The following applies: Pseudomonas aeruginosa. How it is done:
(§1) Minimum inhibitory concentrations (MIC) were determined by reference Clinical and Laboratory Standards Institute (CLSI) broth microdilution methods per M7-A7 [2006]. Quality control ranges utilizing E. coli ATCC 25922, P. aeruginosa ATCC 27853 and S. aureus ATCC 29213, and interpretive criteria for comparator agents were as published in CLSI M100-S17 [2007]. Briefly, serial two-fold dilutions of the test compounds were prepared at 2× concentration in Mueller Hinton Broth. The compound dilutions were mixed in 96-well assay plates in a 1:1 ratio with bacterial inoculum. The inoculum was prepared by suspension of a colony from an agar plate that was prepared the previous day. Bacteria were suspended in sterile saline and added to each assay plate to obtain a final concentration of 5×10^5 CFU/mL. The plates were incubated at 35° C. for 20 hours in ambient air.
(Dilution methods test growth across graded concentrations, often in twofold steps.)

Test [2] deals with E. coli ATCC 25922 (AECO001). The experiment in a line: MIC, CLSI broth microdilution. The class given is cell-based. The following applies: Escherichia coli. On the procedure: as §1
The mark [3] stands for this setting: ATCC27853, read-out: MIC APAE001, Table 1, APAE001 is ATCC27853.
The mark [4] stands for this setting: ATCC25922, read-out: MIC AECO001, Table 1, AECO001 is ATCC25922.
Setting [5] is: ATCC27853, Table 2, read-out: MIC P. aeruginosa.
[6] abbreviates: ATCC25922, Table 2, read-out: MIC E. coli.
The mark [7] stands for this setting: Table 1, AECO001 is ATCC25922, read-out: MIC AECO001.

≈ marks a conversion by molar mass, not a printed value. Read-outs that look alike come from different tables or passages of the source. Bounds are passed on as bounds.

The MIC is the lowest concentration found to suppress growth. For `CN[C@@H]1[C@@H](O)[C@@H](O[C@@H]2[C@@H](O)[C@H](O[C@H]3OC(CN)=CC[C@H]3NCC(O)CN)[C@@H](N)C[C@H]2NC(=O)[C@@H](O)CCN)OC[C@]1(C)O` (stereo partly drawn) [Example 101, 2′-(2-Hydroxy-3-amino-propyl)-1-(4-amino-2(S)-hydroxy-butyryl)-sisomicin], the MIC in test [1] (setting [3]) is 1 to 16 µg/mL (≈ 1.61 to 25.7 µM); in test [2] (setting [4]) it was below 1 µg/mL.
Take `CN[C@@H]1[C@@H](O)[C@@H](O[C@@H]2[C@@H](O)[C@H](O[C@H]3OC(CNC[C@H]4C[C@H](O)CN4)=CC[C@H]3N)[C@@H](N)C[C@H]2NC(=O)[C@@H](O)CN)OC[C@]1(C)O` [Example 53, 6′-(Methyl-4(S)-hydroxy-pyrrolidin-2(R)-yl)-1-(3-amino-2(S)-hydroxy-propionyl)-sisomicin]: the MIC is above 16 µg/mL in test [1] (setting [3]) and 1 to 16 µg/mL (≈ 1.58 to 25.2 µM) in test [2] (setting [4]).
With `CN[C@@H]1[C@@H](O)[C@@H](O[C@@H]2[C@@H](O)[C@H](O[C@H]3OC(CNCCCN)=CC[C@H]3N)[C@@H](N)C[C@H]2NC(=O)[C@H](O)CCN)OC[C@]1(C)O` [Example 6, 6′-(3-Amino-propyl)-1-(4-amino-2(R)-hydroxy-butyryl)-sisomicin], the MIC in test [1] (setting [3]) and in test [2] (setting [4]) was 1 to 16 µg/mL (≈ 1.65 to 26.4 µM) throughout.
As to `CN[C@@H]1[C@@H](O)[C@@H](O[C@@H]2[C@@H](O)[C@H](O[C@H]3OC(CNCC4(N)CC4)=CC[C@H]3N)[C@@H](N)C[C@H]2NC(=O)[C@@H](O)CN)OC[C@]1(C)O` [Example 67, 6′-(Methyl-1-Amino-cyclopropyl)-1-(3-amino-2(S)-hydroxy-propionyl)-sisomicin], the MIC in test [1] (setting [3]) and in test [2] (setting [4]) was 1 to 16 µg/mL (≈ 1.66 to 26.5 µM) in each case.
For `CN[C@@H]1[C@@H](O)[C@@H](O[C@@H]2[C@@H](O)[C@H](O[C@H]3OC(CNCC4CC4)=CC[C@H]3N)[C@@H](N)C[C@H]2NC(=O)[C@H](O)CN)OC[C@]1(C)O` [Example 7, 6′-Methyl-cyclopropyl-1-(3-amino-2(R)-hydroxy-propionyl)-sisomicin], the minimum inhibitory concentration (MIC) in test [1] (setting [3]) was 1 to 16 µg/mL (≈ 1.7 to 27.2 µM); in test [2] (setting [4]), below 1 µg/mL.
As to `CN[C@@H]1[C@@H](O)[C@@H](O[C@@H]2[C@@H](O)[C@H](O[C@H]3OC(CN)=CC[C@H]3NC3CNC3)[C@@H](N)C[C@H]2NC(=O)[C@@H](O)CCN)OC[C@]1(C)O` [Example 96, 2′-(Azetidin-3-yl)-1-(4-amino-2(S)-hydroxy-butyryl)-sisomicin], the MIC is 1 to 16 µg/mL (≈ 1.66 to 26.5 µM) in test [1] (setting [5]), below 1 µg/mL in test [2] (setting [6]) and below 1 µg/mL in test [2] (setting [7]).
`CN[C@@H]1[C@@H](O)[C@@H](O[C@@H]2[C@@H](O)[C@H](O[C@H]3OC(CN)=CC[C@H]3NC(=O)C(O)CN)[C@@H](N)C[C@H]2NC(=O)[C@@H](O)CCN)OC[C@]1(C)O` (stereo partly drawn) [Example 89, 2′-(3-Amino-2-hydroxy-propionyl)-1-(4-amino-2(S)-hydroxy-butyryl)-sisomicin]: the MIC in test [1] (setting [3]) was 1 to 16 µg/mL (≈ 1.57 to 25.2 µM); in test [2] (setting [4]) it was below 1 µg/mL.
In the case of `CN[C@@H]1[C@@H](O)[C@@H](O[C@@H]2[C@@H](O)[C@H](O[C@H]3OC(CNCCO)=CC[C@H]3N)[C@@H](N)C[C@H]2NC(=O)[C@H](O)CCN)OC[C@]1(C)O` [Example 2, 6′-(2-Hydroxy-ethyl)-1-(4-amino-2(R)-hydroxy-butyryl)-sisomicin], the MIC in test [1] (setting [3]) and in test [2] (setting [4]) was 1 to 16 µg/mL (≈ 1.69 to 27 µM) throughout.
As for `CN[C@@H]1[C@@H](O)[C@@H](O[C@@H]2[C@@H](O)[C@H](O[C@H]3OC(CNC[C@H]4C[C@H](N)C4)=CC[C@H]3N)[C@@H](N)C[C@H]2NC(=O)C2(O)CCNC2)OC[C@]1(C)O` (stereo partly drawn) [Example 78, 6′-(Methyl-trans-3-amino-cyclobutyl)-1-(3-hydroxy-pyrrolidin-3-yl-acetyl)-sisomicin], the MIC in test [1] (setting [3]) is 1 to 16 µg/mL (≈ 1.55 to 24.9 µM); in test [2] (setting [4]), below 1 µg/mL.
As to `CN[C@@H]1[C@@H](O)[C@@H](O[C@@H]2[C@@H](O)[C@H](O[C@H]3OC(CN)=CC[C@H]3NCC(C)(C)CN(C)C)[C@@H](N)C[C@H]2NC(=O)[C@@H](O)CCN)OC[C@]1(C)O` [Example 94, 2′-(N,N-Dimethyl-2,2-dimethyl-3-amino-propyl)-1-(4-amino-2(S)-hydroxy-butyryl)-sisomicin], the MIC was above 16 µg/mL in test [1] (setting [3]) and 1 to 16 µg/mL (≈ 1.51 to 24.2 µM) in test [2] (setting [4]).
The matching figures for `CN[C@@H]1[C@@H](O)[C@@H](O[C@@H]2[C@@H](O)[C@H](O[C@H]3OC(CNCC4CNC4)=CC[C@H]3N)[C@@H](N)C[C@H]2NC(=O)[C@@H](O)CN)OC[C@]1(C)O` [Example 73, 6′-(Methyl-azetidin-3-yl)-1-(3-amino-2(S)-hydroxy-propionyl)-sisomicin]: 1 to 16 µg/mL (≈ 1.66 to 26.5 µM) and 1 to 16 µg/mL (≈ 1.66 to 26.5 µM).
On to `CN[C@@H]1[C@@H](O)[C@@H](O[C@@H]2[C@@H](O)[C@H](O[C@H]3OC(CNCCO)=CC[C@H]3N)[C@@H](N)C[C@H]2NC(=O)C(O)C2CNC2)OC[C@]1(C)O` (stereo partly shown) [Example 75, 6′-(2-Hydroxy-ethyl)-1-(2-(azetidin-3-yl)-2-hydroxy-acetyl)-sisomicin], for which the MIC in test [1] (setting [3]) is above 16 µg/mL; in test [2] (setting [4]), 1 to 16 µg/mL (≈ 1.65 to 26.5 µM).
As to `CN[C@@H]1[C@@H](O)[C@@H](O[C@@H]2[C@@H](O)[C@H](O[C@H]3OC(CN)=CC[C@H]3NC[C@H]3C[C@H](N)C3)[C@@H](N)C[C@H]2NC(=O)[C@@H](O)CCN)OC[C@]1(C)O` [Example 104, 2′-(Methyl-trans-3-amino-cyclobutyl)-1-(4-amino-2(S)-hydroxy-butyryl)-sisomicin], the MIC in test [1] (setting [3]) is 1 to 16 µg/mL (≈ 1.58 to 25.3 µM); in test [2] (setting [4]), below 1 µg/mL.
In the case of `CN[C@@H]1[C@@H](O)[C@@H](O[C@@H]2[C@@H](O)[C@H](O[C@H]3OC(CNCC(O)C(N)=O)=CC[C@H]3N)[C@@H](N)C[C@H]2NC(=O)[C@@H](O)CN)OC[C@]1(C)O` (stereo partly drawn) [Example 21, 6′-(2-Hydroxy-3-propionamide)-1-(3-amino-2(S)-hydroxy-propionyl)-sisomicin], the MIC in test [1] (setting [3]) and in test [2] (setting [4]) was 1 to 16 µg/mL (≈ 1.61 to 25.7 µM) throughout.
With `CN[C@@H]1[C@@H](O)[C@@H](O[C@@H]2[C@@H](O)[C@H](O[C@H]3OC(CNCCCN)=CC[C@H]3N)[C@@H](N)C[C@H]2NC(=O)C2(O)CNC2)OC[C@]1(C)O` [Example 57], the MIC in test [1] (setting [5]), in test [2] (setting [6]) and in test [2] (setting [7]) was below 1 µg/mL throughout.
As to `CN[C@@H]1[C@@H](O)[C@@H](O[C@@H]2[C@@H](O)[C@H](O[C@H]3OC(CNCC(O)CCN)=CC[C@H]3N)[C@@H](N)C[C@H]2NC(=O)C2(O)CCNC2)OC[C@]1(C)O` (stereo partly shown) [Example 35], the MIC in test [1] (setting [3]) is 1 to 16 µg/mL (≈ 1.54 to 24.7 µM); in test [2] (setting [4]) it was below 1 µg/mL.
For `CNCC1=CC[C@@H](NC(=N)N)[C@@H](O[C@H]2[C@H](O)[C@@H](O[C@H]3OC[C@](C)(O)[C@H](NC)[C@H]3O)[C@H](N)C[C@@H]2N)O1` [Example 108, 6′-Methyl-2′-guanidinium-sisomicin], in that order: 1 to 16 µg/mL (≈ 1.99 to 31.8 µM) and below 1 µg/mL.
Take `CN[C@@H]1[C@@H](O)[C@@H](O[C@@H]2[C@@H](O)[C@H](O[C@H]3OC(CN)=CC[C@H]3NC(=O)C(N)CCCN)[C@@H](N)C[C@H]2NC(=O)[C@@H](O)CCN)OC[C@]1(C)O` (stereo partly drawn) [Example 99, 2′-(2,5-Diamino-pentoyl)-1-(4-amino-2(S)-hydroxy-butyryl)-sisomicin]: the MIC in test [1] (setting [3]) and in test [2] (setting [4]) was 1 to 16 µg/mL (≈ 1.51 to 24.1 µM) in each case.
On to `CN[C@@H]1[C@@H](O)[C@@H](O[C@@H]2[C@@H](O)[C@H](O[C@H]3OC(CNC[C@H]4C[C@@H](N)[C@@H](O)C4)=CC[C@H]3N)[C@@H](N)C[C@H]2NC(=O)[C@@H](O)CN)OC[C@]1(C)O` [Example 69, 6′-(Methyl-1(R)-amino-2(S)-hydroxy-cyclopent-4(S)-yl)-1-(3-amino-2(S)-hydroxy-propionyl)-sisomicin], for which the MIC was 1 to 16 µg/mL (≈ 1.54 to 24.7 µM) in test [1] (setting [3]) and below 1 µg/mL in test [2] (setting [4]).
